Source: US7312322B1, “Genetic sequences encoding steroid and juvenile hormone receptor polypeptides and insecticidal modalities therefor” (priority 1998, dated 2007)

How the values were obtained:
[1] = biological target: T1, chimeric EcR polypeptide encoded by plasmid pSGLD (UniProt O18531+P34021, A395P/D402E/DEL360-378/E403D/F552Y/I397C/I665A/INS379CATEI/K578E/L663I/M356I/Q393S/Q448S/Q580E/R443K/S415P/S515N/S605P/T357Q/T417S/T456H/V458A/Y611F); assay: CHO cell co-transfection CAT reporter assay, chimeric EcR plasmid pSGLD; type: cell-based, D. melanogaster / L. cuprina; details: 10 μM and 50 μM Muristerone A, comparable to D. melanogaster base EcR polypeptide (FIG. 2)
T1 construct: expressed in transfected cells
T1 sequence (P34021+O18531 fused with the stated changes): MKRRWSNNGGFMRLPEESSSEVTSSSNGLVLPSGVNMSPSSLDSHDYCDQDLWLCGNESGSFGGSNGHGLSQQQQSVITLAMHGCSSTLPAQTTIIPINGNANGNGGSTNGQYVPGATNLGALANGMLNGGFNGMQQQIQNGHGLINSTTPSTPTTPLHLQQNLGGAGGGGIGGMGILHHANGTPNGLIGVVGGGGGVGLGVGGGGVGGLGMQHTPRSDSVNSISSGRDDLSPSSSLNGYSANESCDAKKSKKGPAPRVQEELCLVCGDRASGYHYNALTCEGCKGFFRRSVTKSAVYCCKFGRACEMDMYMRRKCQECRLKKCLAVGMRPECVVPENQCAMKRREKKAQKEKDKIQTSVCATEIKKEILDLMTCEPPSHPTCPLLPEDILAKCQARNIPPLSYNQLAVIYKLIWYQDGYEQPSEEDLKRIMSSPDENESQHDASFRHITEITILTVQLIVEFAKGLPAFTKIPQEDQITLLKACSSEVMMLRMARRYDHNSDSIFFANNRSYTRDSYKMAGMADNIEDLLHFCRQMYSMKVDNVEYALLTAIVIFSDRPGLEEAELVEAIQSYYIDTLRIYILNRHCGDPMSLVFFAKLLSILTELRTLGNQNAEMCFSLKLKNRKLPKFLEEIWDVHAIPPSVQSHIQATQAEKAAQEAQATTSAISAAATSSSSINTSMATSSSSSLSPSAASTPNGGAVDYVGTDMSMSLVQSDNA
Description: (§1) FIG. 2 is a copy of a graphical representation showing the activity of plasmid pSGLD and pSGDL, containing chimeric EcR polypeptide subunits of insect ecdysone receptors, produced as described in the Examples. Cotransfection assays were performed as described in the Examples using plasmids pSGLD and pSGDL and the CAT reporter plasmid p(EcRE)7-CAT (1 ug/ml) and an independent reporter, pPGKLacZ at 1 μg/ml each. CAT/b-Gal (%) refers to CAT reporter activity expressed as a percentage relative to β-galactosidase activity produced by the internal control reporter, pPGKLacZ.
(§2) In one exemplification of this embodiment, plasmids pSGLD and pSGDL are produced comprising coding regions derived from the EcR polypeptides of the D. melanogaster and L. cuprina ecdysone receptors. In plasmid pSGLD, the 5′-end of the open reading frame of the D. melanogaster sequence, encoding the N-terminal portion of the EcR polypeptide of the D. melanogaster ecdysone receptor to the end of the DNA-binding domain of said polypeptide, is fused to the 3′-end of the open reading frame of the L. cuprina sequence, encoding the C-terminal portion of the EcR polypeptide of the L. cuprina ecdysone receptor, from the D domain and hormone-binding domain to the carboxyl terminus. […]

[2] = biological target: T2, chimeric EcR polypeptide encoded by plasmid pSGDL (Drosophila melanogaster, UniProt P34021, A242T/A248V/C246S/D219E/E244D/N243S/R304H/S245A/S251I/S295N/V221A/V259L/Y240F); assay: CHO cell co-transfection CAT reporter assay, chimeric EcR plasmid pSGDL; type: cell-based, L. cuprina / D. melanogaster; details: 10 μM and 50 μM Muristerone A, comparable to D. melanogaster base EcR polypeptide (FIG. 2)
T2 construct: expressed in transfected cells
T2 sequence (P34021 other isoform, or with tags, fused parts or gaps with the stated changes): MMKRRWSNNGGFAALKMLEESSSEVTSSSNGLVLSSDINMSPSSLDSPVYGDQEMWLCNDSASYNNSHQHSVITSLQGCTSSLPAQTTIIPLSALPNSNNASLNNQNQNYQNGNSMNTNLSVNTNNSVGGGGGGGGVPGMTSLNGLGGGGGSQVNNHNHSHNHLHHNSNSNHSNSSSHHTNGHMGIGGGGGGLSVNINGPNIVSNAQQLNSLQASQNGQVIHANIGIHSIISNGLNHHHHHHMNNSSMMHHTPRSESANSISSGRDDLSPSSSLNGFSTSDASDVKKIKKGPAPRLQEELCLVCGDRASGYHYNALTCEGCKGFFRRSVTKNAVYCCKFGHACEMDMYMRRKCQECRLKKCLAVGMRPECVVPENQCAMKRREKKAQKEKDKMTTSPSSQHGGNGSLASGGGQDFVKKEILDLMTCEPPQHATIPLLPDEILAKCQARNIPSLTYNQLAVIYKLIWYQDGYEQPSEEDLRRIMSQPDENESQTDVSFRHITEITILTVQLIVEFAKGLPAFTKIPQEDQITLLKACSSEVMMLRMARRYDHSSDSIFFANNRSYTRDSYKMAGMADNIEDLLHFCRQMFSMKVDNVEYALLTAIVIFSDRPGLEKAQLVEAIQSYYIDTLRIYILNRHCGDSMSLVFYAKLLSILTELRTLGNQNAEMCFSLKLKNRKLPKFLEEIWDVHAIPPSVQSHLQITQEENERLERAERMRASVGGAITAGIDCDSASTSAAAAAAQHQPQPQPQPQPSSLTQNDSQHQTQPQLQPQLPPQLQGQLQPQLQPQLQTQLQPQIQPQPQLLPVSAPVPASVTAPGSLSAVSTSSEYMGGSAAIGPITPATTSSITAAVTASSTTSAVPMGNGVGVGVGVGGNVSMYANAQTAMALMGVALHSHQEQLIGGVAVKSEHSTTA
Description: as §1, §2

[3] = biological target: T3, EcR polypeptide of the L. cuprina ecdysone receptor (Lucilia cuprina, UniProt O18531); assay: CHO cell co-transfection CAT reporter assay, pSGLcEcR; type: cell-based; details: CHO cells, 48 h after transfection, average of three experiments (FIG. 1)
T3 construct: Plasmid pF3 thus contains the complete open reading frame of the cDNA encoding the EcR polypeptide of the L. cuprina ecdysone receptor; expressed in transfected cells; host or cells: CHO cells
T3 sequence (O18531 1-757): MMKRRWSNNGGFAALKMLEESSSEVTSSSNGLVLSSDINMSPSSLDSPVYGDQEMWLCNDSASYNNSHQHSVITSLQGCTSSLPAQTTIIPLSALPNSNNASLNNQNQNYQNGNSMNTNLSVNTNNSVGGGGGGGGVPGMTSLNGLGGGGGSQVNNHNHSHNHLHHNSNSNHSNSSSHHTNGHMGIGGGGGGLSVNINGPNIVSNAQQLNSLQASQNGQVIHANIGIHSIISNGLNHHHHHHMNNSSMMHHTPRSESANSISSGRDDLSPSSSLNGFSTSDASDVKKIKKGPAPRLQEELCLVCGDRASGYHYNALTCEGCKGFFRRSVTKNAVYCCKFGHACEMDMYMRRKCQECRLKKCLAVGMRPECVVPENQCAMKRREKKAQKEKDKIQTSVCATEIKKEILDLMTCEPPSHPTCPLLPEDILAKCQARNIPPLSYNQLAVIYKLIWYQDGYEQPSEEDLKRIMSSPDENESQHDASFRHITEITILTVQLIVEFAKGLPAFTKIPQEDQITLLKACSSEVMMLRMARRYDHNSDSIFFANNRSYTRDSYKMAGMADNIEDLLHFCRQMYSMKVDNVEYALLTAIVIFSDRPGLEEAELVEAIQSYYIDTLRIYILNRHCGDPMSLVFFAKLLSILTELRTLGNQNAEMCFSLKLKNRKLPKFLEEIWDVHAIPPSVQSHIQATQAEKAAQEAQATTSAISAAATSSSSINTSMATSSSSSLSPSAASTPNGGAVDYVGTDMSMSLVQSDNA
Description: CHO cells were co-transfected with a mixture comprising the following DNAs, lysed and assayed for CAT and β-galactosidase enzyme activity, as described in the preceding Examples: • (1) one of the expression plasmids designated pSGDmEcR, or pSGLcEcR, or the parental expression plasmid pSG5 as a negative control, at a concentration of 1 μg/ml; and • (2) the CAT reporter plasmid p(EcRE)5CAT at a concentration of 1 μg/ml; and • (3) an independent LacZ reporter plasmid, pPGKLacZ, at a concentration of 1 μg/ml, included as a control to monitor transfection efficiency.
CAT reporter gene expression was induced with 10 μM or 50 μM Muristerone A. In control samples, cells received only the carrier ethanol in place of Muristerone A.
ELISA was used to quantify the synthesis of CAT and β-galactosidase enzymes, in extracts of cells forty eight hours after transfection. Account was taken of the variation between experiments, by normalizing the level of CAT enzyme to the level of β-galactosidase enzyme present in the same extract. Fold induction represents the normalized values for CAT gene expression in cells transfected with pSGDmEcR, pSGLcEcR or pSG5 in the presence of hormone divided by the normalized values for CAT gene expression in cells transfected with the same plasmid but in the absence of hormone. […]

[4] = biological target: T4, linker and ligand-binding regions of the D. melanogaster EcR polypeptide and partner protein (USP polypeptide) (Drosophila melanogaster, UniProt P34021); assay: [3H]ponasterone A binding assay in cells infected by recombinant baculovirus (modified method of Yund et al); details: compared to the naturally-occurring ecdysone holoreceptor in L. cuprina embryos; no specific binding with control virus
T4 construct: made in house; host or cells: recombinant baculovirus in insect Sf21 and Sf9 cells
T4 sequence (P34021 419-654 limits assumed): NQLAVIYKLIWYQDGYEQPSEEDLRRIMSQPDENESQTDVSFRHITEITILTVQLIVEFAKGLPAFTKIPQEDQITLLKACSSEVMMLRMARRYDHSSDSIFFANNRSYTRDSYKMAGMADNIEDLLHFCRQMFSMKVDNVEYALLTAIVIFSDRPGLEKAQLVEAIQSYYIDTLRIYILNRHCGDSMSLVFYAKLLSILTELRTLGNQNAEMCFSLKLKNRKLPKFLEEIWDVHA
T4 sequence (P20153 239-498 partner limits assumed): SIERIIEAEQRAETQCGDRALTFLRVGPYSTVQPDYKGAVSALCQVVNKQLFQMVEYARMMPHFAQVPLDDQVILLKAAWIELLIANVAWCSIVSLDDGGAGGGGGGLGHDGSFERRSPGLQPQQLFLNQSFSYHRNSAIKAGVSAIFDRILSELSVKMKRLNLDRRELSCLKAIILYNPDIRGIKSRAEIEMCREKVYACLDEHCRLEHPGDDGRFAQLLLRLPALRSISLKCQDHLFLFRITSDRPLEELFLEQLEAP
Text: The segment of pDmEcR.USP.DUAL which encodes the tagged linker and ligand-binding regions of the EcR polypeptide and partner protein (USP polypeptide) sequences, placed operably under the control of polyhedrin and p10 promoters, respectively, was recombined into a baculovirus genome, by employing the Tn7 transposition system (Luckow et al, (1993). The polypeptide products were then co-expressed in insect Sf21 and Sf9 cells, where they associated into a functional complex.
The correctly-folded and associated complex formed by the truncated Ecr polypeptide and truncated EcR partner protein (USP polypeptide), is used for X-ray and NMR structural analysis and for high-throughput screens.

## CC(C)CC[C@@H](O)[C@](C)(O)[C@H]1CC[C@@]2(O)C3=CC(=O)[C@]4(O)C[C@@H](O)[C@@H](O)C[C@]4(C)[C@H]3[C@H](O)C[C@]12C [Muristerone A]
[1]
  bioactivity in the CAT assay: Significant bioactivity
[2]
  bioactivity in the CAT assay: Significant bioactivity
[3]; 50 μM steroid
  CAT induction (fold induction): about 30 fold
[3]; 10 μm steroid
  CAT induction (fold induction): ~15 fold

## [^3H]ponasterone A
[4]
  binding of labelled ligand in cells infected by the recombinant baculovirus: highly-significant increase in the binding
